Source: PubChem BioAssay (NCI)
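Interpolation was linear, between the two tested concentrations surrounding the appropriate level; five concentrations were tested over 48 hours in 96-well plates. GI50: concentration for 50% inhibition of growth. At the TGI there is no net growth.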

What was measured:
Assay in all cases: inhibition of tumour cell growth, NCI panel, 48 h
[1] = system: T-47D breast
[2] = system: SN12C renal
[3] = system: M14 melanoma
[4] = system: SW-620 colon
[5] = system: RXF 393 renal
[6] = system: OVCAR-3 ovarian
[7] = system: CCRF-CEM leukemia
[8] = system: DU-145 prostate
[9] = system: COLO 205 colon
[10] = system: U251 CNS
[11] = system: OVCAR-5 ovarian
[12] = system: SR leukemia
[13] = system: MOLT-4 leukemia
[14] = system: KM12 colon
[15] = system: MDA-MB-435
[16] = system: ACHN renal
[17] = system: SK-OV-3 ovarian
[18] = system: A549 NSCLC
[19] = system: NCI-H23 lung
[20] = system: K-562 leukemia
[21] = system: MDA-MB-231 breast
[22] = system: RPMI-8226 leukemia
[23] = system: MCF7 breast
[24] = system: SF-539 CNS
[25] = system: HS 578T breast
[26] = system: TK-10 renal
[27] = system: SK-MEL-2 melanoma
[28] = system: UACC-62 melanoma
[29] = system: SF-295 CNS
[30] = system: SK-MEL-28 melanoma
[31] = system: OVCAR-4 ovarian
[32] = system: A498 renal
[33] = system: SK-MEL-5 melanoma
[34] = system: HCT-15 colon
[35] = system: HCT-116 colon
[36] = system: HOP-92 NSCLC
[37] = system: SNB-19 CNS
[38] = system: NCI-H522 lung
[39] = system: OVCAR-8 ovarian
[40] = system: MALME-3M melanoma
[41] = system: PC-3 prostate
[42] = system: 786-0 renal
[43] = system: LOX IMVI melanoma
[44] = system: HL-60(TB) leukemia
[45] = system: IGROV1 ovarian
[46] = system: UO-31 renal
[47] = system: CAKI-1 renal
[48] = system: HT29 colon
[49] = system: SF-268 CNS
[50] = system: SNB-75 CNS
[51] = system: HCC-2998 colon
[52] = system: NCI/ADR-RES ovarian
[53] = system: UACC-257 melanoma
[54] = system: BT-549 breast
[55] = system: NCI-H226 lung
[56] = system: NCI-H460 lung
[57] = system: HOP-62 NSCLC
[58] = system: EKVX NSCLC

Structure (SMILES): CCCCCCCCCCCCSC1=CC(=O)C=CC1=O
- GI50 [1]: 0.893 µM
- TGI [1]: 3.58 µM
- GI50 [2]: 3.24 µM
- TGI [2]: 24.7 µM
- GI50 [3]: 11.7 µM
- TGI [3]: > 37.1 µM
- GI50 [4]: 17.9 µM
- TGI [4]: > 50 µM
- GI50 [5]: 2.86 µM
- TGI [5]: 19.3 µM
- GI50 [6]: 1.98 µM
- TGI [6]: 7.91 µM
- GI50 [7]: 0.143 µM
- TGI [7]: 4.17 µM
- GI50 [8]: 15.1 µM
- TGI [8]: > 50 µM
- GI50 [9]: 20.9 µM
- TGI [9]: > 36.2 µM
- GI50 [10]: 0.311 µM
- TGI [10]: 4.57 µM
- GI50 [11]: 11.8 µM
- TGI [11]: > 42 µM
- GI50 [12]: 3.58 µM
- TGI [12]: 29.1 µM
- GI50 [13]: 0.218 µM
- TGI [13]: 8.97 µM
- GI50 [14]: 1.92 µM
- TGI [14]: 8.37 µM
- GI50 [15]: 15.6 µM
- TGI [15]: > 50 µM
- GI50 [16]: 9.13 µM
- TGI [16]: > 42.4 µM
- GI50 [17]: 12.2 µM
- TGI [17]: > 33.4 µM
- GI50 [18]: 9.46 µM
- TGI [18]: > 50 µM
- GI50 [19]: 5.69 µM
- TGI [19]: 21.6 µM
- GI50 [20]: 6.44 µM
- TGI [20]: > 36.9 µM
- GI50 [21]: 5.36 µM
- TGI [21]: 17.1 µM
- GI50 [22]: 0.804 µM
- TGI [22]: 3.46 µM
- GI50 [23]: 2.22 µM
- TGI [23]: > 50 µM
- GI50 [24]: 1.23 µM
- TGI [24]: 3.5 µM
- GI50 [25]: 1.96 µM
- TGI [25]: 21.8 µM
- GI50 [26]: 16.3 µM
- TGI [26]: 37.4 µM
- GI50 [27]: 7.5 µM
- TGI [27]: 19.4 µM
- GI50 [28]: 7.59 µM
- TGI [28]: > 36.9 µM
- GI50 [29]: 1.44 µM
- TGI [29]: 4.75 µM
- GI50 [30]: 13.6 µM
- TGI [30]: > 39.9 µM
- GI50 [31]: 2.17 µM
- TGI [31]: 9 µM
- GI50 [32]: 7.96 µM
- TGI [32]: 24.3 µM
- GI50 [33]: 5.54 µM
- TGI [33]: 14.3 µM
- GI50 [34]: 1.92 µM
- TGI [34]: > 32.4 µM
- GI50 [35]: 6.31 µM
- TGI [35]: > 43.3 µM
- GI50 [36]: 2.56 µM
- TGI [36]: 12.6 µM
- GI50 [37]: 1.69 µM
- TGI [37]: > 28.6 µM
- GI50 [38]: 0.191 µM
- TGI [38]: 0.763 µM
- GI50 [39]: 1.79 µM
- TGI [39]: 32.1 µM
- GI50 [40]: 13.1 µM
- TGI [40]: > 50 µM
- GI50 [41]: 0.672 µM
- TGI [41]: 4.21 µM
- GI50 [42]: 9.94 µM
- TGI [42]: > 33.5 µM
- GI50 [43]: 1.25 µM
- TGI [43]: 4.3 µM
- GI50 [44]: 0.353 µM
- TGI [44]: 2.43 µM
- GI50 [45]: 1.06 µM
- TGI [45]: 3.22 µM
- GI50 [46]: 0.578 µM
- TGI [46]: 2.54 µM
- GI50 [47]: 3.26 µM
- TGI [47]: 24.2 µM
- GI50 [48]: 27.1 µM
- TGI [48]: > 50 µM
- GI50 [49]: 2.24 µM
- TGI [49]: 10.4 µM
- GI50 [50]: 1.14 µM
- TGI [50]: 6.38 µM
- GI50 [51]: 15.2 µM
- TGI [51]: > 50 µM
- GI50 [52]: 1.65 µM
- TGI [52]: > 20.6 µM
- GI50 [53]: 4.01 µM
- TGI [53]: 15.9 µM
- GI50 [54]: 1.34 µM
- TGI [54]: 4.57 µM
- GI50 [55]: 6.58 µM
- TGI [55]: 19 µM
- GI50 [56]: 13.9 µM
- TGI [56]: > 50 µM
- GI50 [57]: 9.23 µM
- TGI [57]: > 35 µM

Structure (SMILES): CCCn1cc(/C=N\N=C2\C(=O)Nc3ccc(C)cc32)c2ccccc21
- GI50 [1]: 0.416 µM
- TGI [1]: 18.4 µM
- GI50 [2]: 3.2 µM
- TGI [2]: 75.9 µM
- GI50 [3]: 1.92 µM
- TGI [3]: 4.7 µM
- GI50 [4]: 2.97 µM
- TGI [4]: 35.3 µM
- GI50 [5]: 2.17 µM
- TGI [5]: 7.94 µM
- GI50 [6]: 1.36 µM
- TGI [6]: 5.11 µM
- GI50 [7]: 1.94 µM
- TGI [7]: > 100 µM
- GI50 [8]: 3.88 µM
- TGI [8]: 40.6 µM
- GI50 [9]: 1.25 µM
- TGI [9]: 3.06 µM
- GI50 [10]: 3.51 µM
- TGI [10]: 17.3 µM
- GI50 [11]: 4.04 µM
- TGI [11]: 25.8 µM
- GI50 [12]: 0.521 µM
- TGI [12]: 8.72 µM
- GI50 [13]: 0.682 µM
- TGI [13]: 4.54 µM
- GI50 [14]: 3.22 µM
- TGI [14]: 19.7 µM
- GI50 [15]: 1.5 µM
- TGI [15]: 2.96 µM
- GI50 [16]: 3.56 µM
- TGI [16]: > 100 µM
- GI50 [17]: 11.7 µM
- TGI [17]: 67.1 µM
- GI50 [18]: 7.18 µM
- TGI [18]: 39.6 µM
- GI50 [58]: 2.36 µM
- TGI [58]: > 100 µM
- GI50 [19]: 3.13 µM
- TGI [19]: 38.2 µM
- GI50 [20]: 2.22 µM
- TGI [20]: 20.5 µM
- GI50 [21]: 1.81 µM
- TGI [21]: 7.4 µM
- GI50 [22]: 1.33 µM
- TGI [22]: 3.96 µM
- GI50 [23]: 1.54 µM
- TGI [23]: 15.5 µM
- GI50 [24]: 2.69 µM
- TGI [24]: 17.1 µM
- GI50 [25]: 11.3 µM
- TGI [25]: > 100 µM
- GI50 [26]: 11.1 µM
- TGI [26]: > 100 µM
- GI50 [27]: 2.42 µM
- TGI [27]: 8.03 µM
- GI50 [28]: 2.24 µM
- TGI [28]: 12.1 µM
- GI50 [29]: 8.41 µM
- TGI [29]: 96.6 µM
- GI50 [30]: 4.7 µM
- TGI [30]: 36.9 µM
- GI50 [31]: 0.935 µM
- TGI [31]: 25.6 µM
- GI50 [32]: 1.37 µM
- TGI [32]: 7.5 µM
- GI50 [33]: 2.86 µM
- TGI [33]: 13.5 µM
- GI50 [34]: 2.63 µM
- TGI [34]: 42.2 µM
- GI50 [35]: 1.75 µM
- TGI [35]: 4.17 µM
- GI50 [36]: 1.87 µM
- TGI [36]: 6.57 µM
- GI50 [37]: 4.24 µM
- TGI [37]: > 100 µM
- GI50 [38]: 1.81 µM
- TGI [38]: 6.59 µM
- GI50 [39]: 5.41 µM
- TGI [39]: > 100 µM
- GI50 [40]: 1.88 µM
- TGI [40]: 6.03 µM
- GI50 [41]: 1.83 µM
- TGI [41]: 5.17 µM
- GI50 [42]: 5.94 µM
- TGI [42]: 71.2 µM
- GI50 [43]: 1.26 µM
- TGI [43]: 3.06 µM
- GI50 [44]: 1.31 µM
- TGI [44]: 4.8 µM
- GI50 [45]: 3.38 µM
- TGI [45]: 63.1 µM
- GI50 [46]: 2.28 µM
- TGI [46]: 61.8 µM
- GI50 [48]: 3.4 µM
- TGI [48]: > 100 µM
- GI50 [49]: 3.33 µM
- TGI [49]: 28 µM
- GI50 [50]: 2.31 µM
- TGI [50]: 46 µM
- GI50 [51]: 2.09 µM
- TGI [51]: 5.14 µM
- GI50 [52]: 6.39 µM
- TGI [52]: 89.9 µM
- GI50 [53]: 12.3 µM
- TGI [53]: 66.6 µM
- GI50 [54]: 1.79 µM
- TGI [54]: 6.33 µM
- GI50 [55]: 2.95 µM
- TGI [55]: 20.6 µM
- GI50 [56]: 2.17 µM
- TGI [56]: 10.6 µM
- GI50 [57]: 4.17 µM
- TGI [57]: 25 µM
